Key:
Format in all cases: functional, cell-based
[1] = target: T1, ATP-dependent translocase ABCB1 (Homo sapiens, UniProt P08183); assay: TP_TRANSPORTER: transepithelial transport of vinblastine in the presence of Atrovastatin at 50uM in KBV1 cells; conditions: kbv1, 50 µM
[2] = target: T1, ATP-dependent translocase ABCB1; assay: TP_TRANSPORTER: transepithelial transport in L-MDR1 cells; conditions: pig
[3] = target: T1, ATP-dependent translocase ABCB1; assay: TP_TRANSPORTER: transepithelial transport of vinblastine in the presence of Simvastatin acid at 50uM in L-MDR1 cells; conditions: pig, l-mdr1, 50 µM

T1 sequence (P08183 whole entry): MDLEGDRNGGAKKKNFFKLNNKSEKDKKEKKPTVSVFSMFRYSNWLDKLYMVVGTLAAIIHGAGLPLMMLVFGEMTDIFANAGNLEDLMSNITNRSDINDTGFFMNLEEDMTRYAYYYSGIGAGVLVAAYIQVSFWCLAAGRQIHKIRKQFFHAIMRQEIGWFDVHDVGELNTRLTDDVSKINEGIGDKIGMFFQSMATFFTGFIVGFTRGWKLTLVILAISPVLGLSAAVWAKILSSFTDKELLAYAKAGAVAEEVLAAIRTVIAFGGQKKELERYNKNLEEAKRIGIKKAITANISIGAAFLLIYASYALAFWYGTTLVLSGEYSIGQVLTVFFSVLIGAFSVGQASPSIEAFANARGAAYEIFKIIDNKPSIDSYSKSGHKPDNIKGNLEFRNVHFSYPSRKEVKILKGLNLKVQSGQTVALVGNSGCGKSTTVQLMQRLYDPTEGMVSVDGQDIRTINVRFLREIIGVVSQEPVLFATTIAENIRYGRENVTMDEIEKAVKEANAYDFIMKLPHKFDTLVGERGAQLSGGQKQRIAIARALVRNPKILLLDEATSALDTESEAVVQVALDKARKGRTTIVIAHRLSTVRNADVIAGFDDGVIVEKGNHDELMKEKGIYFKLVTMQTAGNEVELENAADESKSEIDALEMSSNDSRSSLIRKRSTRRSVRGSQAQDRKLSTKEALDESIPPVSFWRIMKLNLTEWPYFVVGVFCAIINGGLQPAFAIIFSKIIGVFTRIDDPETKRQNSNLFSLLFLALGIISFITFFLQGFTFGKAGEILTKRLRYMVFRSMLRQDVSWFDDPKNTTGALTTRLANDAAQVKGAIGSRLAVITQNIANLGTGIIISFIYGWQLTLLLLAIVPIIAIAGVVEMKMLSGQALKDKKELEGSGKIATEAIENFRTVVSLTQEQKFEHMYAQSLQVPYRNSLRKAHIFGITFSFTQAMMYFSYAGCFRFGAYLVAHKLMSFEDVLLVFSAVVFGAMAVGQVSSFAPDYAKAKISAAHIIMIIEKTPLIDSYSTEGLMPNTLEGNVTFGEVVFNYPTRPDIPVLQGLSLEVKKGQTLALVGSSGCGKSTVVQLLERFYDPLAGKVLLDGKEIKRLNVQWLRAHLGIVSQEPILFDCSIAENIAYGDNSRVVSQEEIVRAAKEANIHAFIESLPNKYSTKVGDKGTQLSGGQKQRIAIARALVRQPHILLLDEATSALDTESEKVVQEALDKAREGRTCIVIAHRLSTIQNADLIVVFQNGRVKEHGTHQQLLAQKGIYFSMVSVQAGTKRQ

CC(C)c1c(C(=O)Nc2ccccc2)c(-c2ccccc2)c(-c2ccc(F)cc2)n1CC[C@@H](O)C[C@@H](O)CC(=O)O [ATORVASTATIN]
Activity [1]: is not an inhibitor [-]
Activity [2]: substrate [+]

CCC(C)(C)C(=O)O[C@H]1C[C@@H](C)C=C2C=C[C@H](C)[C@H](CC[C@@H](O)C[C@@H](O)CC(=O)O)[C@H]21 [TENIVASTATIN]
Activity [2]: substrate [+]
Activity [3]: is not an inhibitor [-]
